The term IC50 denotes the concentration at which inhibition is half-maximal.

The target of one experiment is COX-1 (Homo sapiens, UniProt P23219). The experiment can be described thus: Assay of COX-1 activity from U937 cell microsomes. The class given is biochemical. On the set-up: Assay of COX-1 Activity from U937 cell microsomes; endogenous in cells; host or cells: U937 cells, 100,000 x g microsomal fraction. The settings on record: read-out: U937 Cox-1 (IC50, inhibition of PGE2 production). The procedure: Assay of COX-1 Activity from U937 cell microsomes
U 937 cells are pelleted by centrifugation at 500 x g for 5 min and washed once with phosphate-buffered saline and repelleted. Cells are resuspended in homogenization buffer consisting of 0.1 M Tris-HCl, pH 7.4, 10 mM EDTA, 2 μg/ml leupeptin, 2 μg/ml soybean trypsin inhibitor, 2 μg/ml aprotinin and 1 mM phenyl methyl sulfonyl fluoride. The cell suspension is sonicated 4 times for 10 sec and is centrifuged at 10,000 x g for 10 min at 4° C. The supernatant is centrifuged at 100,000 x g for 1 hr at 4° C. The 100,000 x g microsomal pellet is resuspended in 0.1 M Tris-HCl, pH 7.4, 10 mM EDTA to approximately 7 mg protein/mil and stored at -80° C.
Microsomal preparations are thawed immediately prior to use, subjected to a brief sonication, and then diluted to a protein concentration of 125 μg/ml in 0.1 M Tris-HCl buffer, pH 7.4 containing 10 mM EDTA, 0.5 mM phenol, 1 mM reduced glutathione and 1 μM hematin. Assays are performed in duplicate in a final volume of 250 μl. Initially, 5 μl of DMSO vehicle or drug in DMSO are added to 20 μl of 0.1 M Tris-HCl buffer, pH 7.4 containing 10 mM EDTA in wells of a 96-deepwell polypropylene titre plate. 200 μl of the microsomal preparation are then added and pre-incubated for 15 min at room temperature before addition of 25 μl of […] arachidonic acid in […] Tris-HCl and 10 mM EDTA, pH 7.4. Samples are incubated for 40 min at room temperature and the reaction is stopped by the addition of 25 μl of 1 N HCl. Samples are neutralized with 25 μl of 1 N NaOH prior to quantitation of PGE2 content by radioimmunoassay (Dupont-NEN or Amersham assay kits). Cyclooxygenase activity is defined as the difference between PGE2 levels in samples incubated in the presence of arachidonic acid and ethanol vehicle.
(§1) Compounds of the present invention are inhibitors of COX-2 and are thereby useful in the treatment of COX-2 mediated diseases as enumerated above. The activities of the compounds against cyclooxygenase may be seen in the representative results shown below. In the assay, inhibition is determined by measuring the amount of prostaglandin E2 (PGE2) synthesized in the presence of arachidonic acid, COX-1 or COX-2 and a putative inhibitor. The IC50 values represent the concentration of putative inhibitor required to lower PGE2 synthesis to 50% of that obtained as compared to the uninhibited control.

The next experiment addresses T1, COX-2 (Homo sapiens, UniProt P35354).
T1 sequence (P35354 18-604): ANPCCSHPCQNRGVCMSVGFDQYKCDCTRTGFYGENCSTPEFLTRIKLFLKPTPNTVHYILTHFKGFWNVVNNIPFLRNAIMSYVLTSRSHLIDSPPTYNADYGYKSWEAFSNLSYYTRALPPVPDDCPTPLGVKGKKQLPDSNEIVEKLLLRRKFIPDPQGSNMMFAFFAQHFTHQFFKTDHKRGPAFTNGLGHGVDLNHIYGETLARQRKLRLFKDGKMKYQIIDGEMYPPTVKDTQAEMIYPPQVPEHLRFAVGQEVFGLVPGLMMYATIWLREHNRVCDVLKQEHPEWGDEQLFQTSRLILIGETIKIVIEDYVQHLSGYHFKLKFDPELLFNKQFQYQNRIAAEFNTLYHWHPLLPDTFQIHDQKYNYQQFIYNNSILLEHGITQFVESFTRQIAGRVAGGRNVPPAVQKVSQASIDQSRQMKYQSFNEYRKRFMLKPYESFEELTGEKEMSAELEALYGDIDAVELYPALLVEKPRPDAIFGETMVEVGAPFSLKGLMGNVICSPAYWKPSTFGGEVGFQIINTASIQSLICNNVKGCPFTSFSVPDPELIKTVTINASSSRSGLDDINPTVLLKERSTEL
The experiment can be described thus: Whole cell assay for COX-2 using CHO transfected cell line (CHO [hCOX-2]). The class given is cell-based. The settings on record: CHO[hCOX-2] cells, 10 μM AA; read-out: CHO Cox-2 (IC50, inhibition of PGE2 production). Further details: expressed in transfected cells; host or cells: Chinese hamster ovary (CHO) cells, stably transfected, CHO[hCOX-2].
Text: Whole cell assays for COX-2 and COX-1 using CHO transfected cell lines
Chinese hamster ovary (CHO) cell lines which have been stably transfected with an eukaryotic expression vector pCDNAIII containing either the human COX-1 or COX-2 cDNA's are used for the assay. These cell lines are referred to as CHO [hCOX-1] and CHO [hCOX-2], respectively. For cyclooxygenase assays, CHO[hCOX-1] cells from suspension cultures and CHO[hCOX-2] cells prepared by trypsinization of adherent cultures are harvested by centrifugation (300 x g, 10 min) and washed once in HBSS containing 15 mM HEPES, pH 7.4, and resuspended in HBSS, 15 mM HEPES, pH 7.4, at a cell concentration of 1.5×10^6 cells/ml. Drugs to be tested are dissolved in DMSO to 66.7-fold the highest test drug concentration. Compounds are typically tested at 8 concentrations in duplicate using serial 3-fold serial dilutions in DMSO of the highest drug concentration. Cells (0.3×10^6 cells in 200 μl) are preincubated with 3 μl of the test drug or DMSO vehicle for 15 min at 37° C. Working solutions of peroxide-free AA (5.5 μM and 110 μM AA for the CHO [hCOX-1] and CHO [COX-2] assays, respectively) are prepared by a 10-fold dilution of a concentrated AA solution in ethanol into HBSS containing 15 mM HEPES, pH 7.4. Cells are then challenged in the presence or absence of drug with the AA/HBSS solution to yield a final concentration of 0.5 μM AA in the CHO[hCOX-1] assay and a final concentration of 10 μM AA in the CHO[hCOX-2] assay. The reaction is terminated by the addition of 10 μl 1 N HCl followed by neutralization with 20 μl of 0.5 N NaOH. The samples are centrifuged at 300 x g at 4° C. for 10 min, and an aliquot of the clarified supernatant is appropriately diluted for the determination of PGE2 levels using an enzyme-linked immunoassay for PGE2 (Correlate PGE2 enzyme immunoassay kit, Assay Designs, Inc.). Cyclooxygenase activity in the absence of test compounds is determined as the difference in PGE2 levels of cells challenged with arachidonic acid versus the PGE2 levels in cells mock-challenged with ethanol vehicle. Inhibition of PGE2 synthesis by test compounds is calculated as a percentage of the activity in the presence of drug versus the activity in the positive control samples.
as §1

COX-1, sequence (P23219 24-599): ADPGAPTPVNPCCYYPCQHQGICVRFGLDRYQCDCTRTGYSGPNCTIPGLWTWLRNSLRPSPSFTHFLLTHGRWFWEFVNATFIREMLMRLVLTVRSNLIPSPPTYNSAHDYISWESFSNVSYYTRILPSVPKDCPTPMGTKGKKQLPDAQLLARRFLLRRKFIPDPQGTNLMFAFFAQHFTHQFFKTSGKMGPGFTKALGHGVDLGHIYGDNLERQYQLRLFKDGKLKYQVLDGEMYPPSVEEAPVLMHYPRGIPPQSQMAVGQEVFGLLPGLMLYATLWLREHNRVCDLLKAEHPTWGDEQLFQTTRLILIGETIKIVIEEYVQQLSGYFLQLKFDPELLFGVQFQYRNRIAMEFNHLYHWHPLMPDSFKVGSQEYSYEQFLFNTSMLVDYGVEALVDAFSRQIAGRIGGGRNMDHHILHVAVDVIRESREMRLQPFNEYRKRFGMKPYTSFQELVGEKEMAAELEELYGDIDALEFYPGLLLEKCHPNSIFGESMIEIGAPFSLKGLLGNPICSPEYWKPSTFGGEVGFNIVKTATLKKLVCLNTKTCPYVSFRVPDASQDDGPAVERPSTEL

`CC[C@@]1(C)OC(=O)C(c2ccc(F)cc2)=C1c1ccc(S(C)(=O)=O)cc1` [e, (5R)-5-ethyl-3-(4-fluorophenyl)-5-methyl-4-[4-(methylsulfonyl)phenyl]-2,5-dihydro-2-furanone]: the IC50 came to 6.2 µM on COX-1 and 0.02 µM at COX-2.
For `CCCC1(C)OC(=O)C(c2cccc(F)c2)=C1c1ccc(S(C)(=O)=O)cc1` (stereo not shown) [o, 3-(3-fluorophenyl)-5-methyl-4-[4-(methylsulfonyl)phenyl]-5-propyl-2,5-dihydro-2-furanone], in that order: more than 10 µM and 0.692 µM.
For `CCC1(CC)OC(=O)C(c2ccccc2)=C1c1ccc(S(C)(=O)=O)cc1` [t, 5,5-diethyl-4-[4-(methylsulfonyl)phenyl]-3-phenyl-2,5-dihydro-2-furanone, reference compound], in that order: more than 10 µM and more than 5 µM.
`CCC1(CC)OC(=O)C(c2ccc(F)cc2)=C1c1ccc(S(C)(=O)=O)cc1` [u, 5,5-diethyl-3-(4-fluorophenyl)-4-[4-(methylsulfonyl)phenyl]-2,5-dihydro-2-furanone, reference compound]: the results for the IC50 on COX-1 and at COX-2 were more than 10 µM and more than 5 µM, respectively.
As for `CCCC1(C)OC(=O)C(c2ccc(F)c(F)c2)=C1c1ccc(S(C)(=O)=O)cc1` (stereo not shown) [p, 3-(3,4-difluorophenyl)-5-methyl-4-[4-(methylsulfonyl)phenyl]-5-propyl-2,5-dihydro-2-furanone], the values for the half-inhibitory concentration (IC50) at COX-1 and at COX-2 were more than 10 µM and 0.237 µM, respectively.
For `CCCC1(C)OC(=O)C(c2ccc(F)cc2)=C1c1ccc(S(C)(=O)=O)cc1` (stereo not shown) [n, 3-(4-fluorophenyl)-5-methyl-4-[4-(methylsulfonyl)phenyl]-5-propyl-2,5-dihydro-2-furanone], in that order: more than 10 µM and 0.194 µM.
For `CC[C@]1(C)OC(=O)C(c2ccc(F)c(F)c2)=C1c1ccc(S(C)(=O)=O)cc1` [i, (5S)-3-(3,4-difluorophenyl)-5-ethyl-5-methyl-4-[4-(methylsulfonyl)phenyl] -2,5-dihydro-2-furanone], in that order: 13.4 µM and 0.042 µM.
Regarding `CC[C@]1(C)OC(=O)C(c2ccc(F)cc2)=C1c1ccc(S(C)(=O)=O)cc1` [d, (5S)-5-ethyl-3-(4-fluorophenyl)-5-methyl-4-[4-(methylsulfonyl)phenyl]-2,5-dihydro-2-furanone], the figures for the IC50 on COX-1 and at COX-2 were 3.2 µM and 0.057 µM, respectively.
On the same counts, the results for `CC[C@@]1(C)OC(=O)C(c2ccc(F)c(F)c2)=C1c1ccc(S(C)(=O)=O)cc1` [h, (5R)-3-(3,4-difluorophenyl)-5-ethyl-5-methyl-4-[4-(methylsulfonyl)phenyl] -2,5-dihydro-2-furanone] are 24.8 µM and 0.051 µM.
Take `CCC1(C)OC(=O)C(c2ccc(F)cc2)=C1c1ccc(S(C)(=O)=O)cc1` (stereo not shown) [c, 5-ethyl-3-(4-fluorophenyl)-5-methyl-4-[4-(methylsulfonyl)phenyl]-2,5-dihydro-2-furanone]: the IC50 at COX-1 was determined as 7.4 µM; at COX-2, 0.022 µM.
As to `CC1(C)OC(=O)C(c2ccc(F)cc2)=C1c1ccc(S(C)(=O)=O)cc1` [Compound T3-1, 3-(4-fluorophenyl)-5,5-dimethyl-4-[4-(methylsulfonyl)phenyl]-2,5-dihydro-2-furanone, reference compound], the half-inhibitory concentration (IC50) on COX-1 came out at 5.8 µM; at COX-2 it was 0.042 µM.

The values are drawn from US6133292A, “Diaryl-5-alkyl-5-methyl-2-(5H)-furanones as selective cyclooxygenase-2-inhibitors” (Merck Frosst Canada & Co., priority 1998, dated 2000).
